Test results published in patent US20130041005A1, “PHARMACEUTICAL COMPOSITIONS COMPRISING NEUROPILIN INHIBITORS, AND THEIR USE FOR THE PREVENTION AND/OR TREATMENT OF ANGIOGENIC DISORDERS AND CANCERS” (TRAGEX PHARMA, priority 2011, published 2013).

Columns and labels:
[1] = tested on: HUVEC cells; experiment: WST-1 proliferation assay, HUVEC; type: cell-based; details: for cytotoxicity for endothelial cell lines (HUVEC cells) in culture: FIG. 1 cell survival; for IC50: Homo sapiens, HUVEC, 72 h, read-out: Anti-proliferative activity on HUVEC cells (IC50)
Experimental: Cells were grown as subconfluent monolayer and cultured in 75 cm^2 flasks at 37° C., 5% CO2 in a humidified atmosphere, and medium was changed every two days. Only cells from passages 2-6 were used for the experiments.
All cells were detached with 3 ml of trypsin/EDTA (chelator of calcium and magnesium ions) (Lonza), incubated for 5 min at 37° C., and examined using a microscope to ensure that the cells were detached and floating. […] The supernatant was removed and the cell pellet resuspended in […] of culture medium. 50 μl of this solution were transferred in 20 μl of isotonic solution and the cells were counted by count cellular (Beckman Coulter).
The cell proliferation WST-1 assay is a colorimetric assay for the quantification of cell proliferation and viability, based on the enzymatic cleavage of the tetrazolium salt WST-1 added to the culture medium, to a water soluble colored formazan dye, detected by absorbance at 450 nm, by mitochondrial succinate-tetrazolium reductase in viable cells. An augmentation in enzyme activity will then lead to an increase in the amount of formazan dye formed, which directly correlates to the number of metabolically active cells in the culture.
After an incubation period of 72 h, at day 4, were prepared the […] medium with reagent WST-1 […] ([…]). The medium was removed from the 96 microplate and 200 μl of solution WST-1/medium were added for each well. The cells were incubated at 37° C. in a humidified atmosphere of 5% CO2 for 1 h 30 and the absorbance at 450-655 nm was measured by Microplate Manager 5.2 (Bio-Rad).

[2] = tested on: SH-SY5Y; experiment: WST-1 proliferation assay, SH-SY5Y; type: cell-based; details: Homo sapiens; Brain SH-SY5Y, 72 h; read-out: Anti-proliferative activity IC50 (μM) ± SD
From the text: (§1) Several cancer cell lines were used: breast cancer cells (MDA-MB-231 (ATTCC® Number HTB-26™), MDA-MB-436 (ATTCC® Number HTB-130™), MDA-MB-438, BT-474 (ATTCC® Number HTB-20™)); cervical cancer cells (HeLa (ATTCC® Number CCL-2™)); colon cancer cells (HCT-116 (ATTCC® Number CCL-247™) and HT-29 (ATTCC® Number HTB-38™)); osteosarcoma cells (U2OS (ATTCC® Number HTB-96™)); pancreas cancer cells (MIA PaCa-2 (ATTCC® Number CRL-1420™) and Panc-10.5 (ATTCC® Number CRL-2547™)); prostate cancer cells (PC-3 (ATTCC® Number CRL-1435™) and LNCaP (ATTCC® Number CRL-1740™)); brain cancer cells (U87 glioblastoma (ATTCC® Number HTB-14™) and SH-SYSY neuroblastoma (ATTCC® Number CRL-2266™)). […]
(§2) After observation of cells under the microscope, old media were removed and the adherent cells washed gently twice with PBS (Phosphate Buffer Saline, —Ca^2+, —Mg^2+, Lonza cat no: 17-512F/12). […] 50 μl of this solution were transferred in 20 μl of isotonic solution and the cells were counted by count cellular (Beckman Coulter). […]
(§3) The cell proliferation WST-1 assay is a colorimetric assay for the quantification of cell proliferation and viability, based on the enzymatic cleavage of the tetrazolium salt WST-1 added to the culture medium, to a water soluble colored formazan dye, detected by absorbance at 450 nm, by mitochondrial succinate-tetrazolium reductase in viable cells. […]

[3] = tested on: cancer cell lines; experiment: wst-1 cytotoxic test, all tested cancer cell lines; type: cell-based, Human; details: breast, colon, pancreas, cervical, prostate or brain cancer or osteosarcoma
From the text: as §1, §2, §3

[4] = tested on: CEM; experiment: WST-1 proliferation assay, CEM; type: cell-based; details: Homo sapiens, CCRF-CEM; Acute lymphoblastic leukemia CEM; read-out: Anti-proliferative activity IC50 (μM) ± SD
Experimental: (§4) All the cancer cell lines were maintained in cultured in DMEM GlutaMAX™ (GIBCO Invitrogen, France, cat no 31966047) enhanced with 10% foetal bovine serum (GIBCO Invitrogen, France, cat no 10270-106) and 1% penicillin G/streptomycin (GIBCO Invitrogen, France, cat no 15140-122). Only Panc-10.5 cells were cultivated in RPMI 1640 medium (Gibco) supplemented with 2 mM L-glutamine, 1.5 g/L sodium bicarbonate, 4.5 g/L glucose, 10 mM HEPES, 1 mM sodium pyruvate, 10 Units/ml human insulin, […] (SVF): 15% (75 ml in 500 ml of medium).
(§5) Cells were grown as subconfluent monolayer and cultured in 75 cm^2 flasks at 37° C., 5% CO2 in a humidified atmosphere, and medium was changed every two days. […]
as §3
(§6) After an incubation period of 72 h, at day 4, were prepared the 19 ml medium with reagent WST-1 1 ml ([…]). […] The cells were incubated at 37° C. in a humidified atmosphere of 5% CO2 for 1 h 30 and the absorbance at 450-655 nm was measured by Microplate Manager 5.2 (Bio-Rad).

[5] = tested on: U266; experiment: WST-1 proliferation assay, U266; type: cell-based; details: Homo sapiens, U-266; Myeloma U266; read-out: Anti-proliferative activity IC50 (μM) ± SD
Experimental: as §4, §5, §3, §6

[6] = tested on: HUVEC; experiment: Tube maintenance assay; type: cell-based; details: VEGF-A165-treated HUVEC in collagen, 24 h treatment (FIG. 3C)
Experimental: A 96-well plate was coated with 70 μl of collagen/media solution (NaOH 0.1N, 48 μL 10× Na2HCO3 and 0.5 mL EBM2) and allowed to solidify at 37° C. for 3 min. HUVEC were seeded at a density of 8×10^5 cells for well in 100 μl complete culture medium. After confluent monolayer formation, a second collagen gel layer with EBM2 supplemented with 50 ng/ml of VEGF-A165 was added over cells and plates were incubated for 24 h at 37° C. and 5% CO2 to allow tube formation.

`Cc1ccc(-c2nc3ccccc3[nH]2)cc1NC(=S)NC(=O)c1ccc2c(c1)OCCO2` [Compound 1, N-[5-(1H-benzimidazol-2-yl)-2-methylphenyl]-N′-(2,3-dihydro-1,4-benzodioxin-6-ylcarbonyl)thiourea] was tested, and the “cytotoxicity for endothelial cell lines (HUVEC cells) in culture” value [1] was “cytotoxic”, the IC50 [1] was 200 ± 10 nM and the IC50 [2] was 0.4 ± 0.03 µM. For the same molecule, the “cytotoxicity for all the tested cancer cell lines” value [3] was “cytotoxic for all the tested cancer cell lines”, the IC50 [4] was 0.5 ± 0.01 µM and the IC50 [5] was 2 µM. The “maintenance of new blood vessels (tube maintenance)” value [6] was “effectively inhibited”.

For `O=C(NC(=S)Nc1cccc(-c2nc3ccccc3[nH]2)c1)c1ccc2c(c1)OCCO2` [Compound 2, N-[3-(1H-benzimidazol-2-yl)phenyl]-N′-(2,3-dihydro-1,4-benzodioxin-6-ylcarbonyl)thiourea], the “cytotoxicity for endothelial cell lines (HUVEC cells) in culture” value [1] was “cytotoxic”, the IC50 [1] was 50 ± 10 nM and the IC50 [2] was 0.05 ± 0.04 µM. For the same molecule, the “cytotoxicity for all the tested cancer cell lines” value [3] was “cytotoxic for all the tested cancer cell lines”, the IC50 [4] was 0.3 ± 0.04 µM and the IC50 [5] was 1.5 ± 0.04 µM. The “maintenance of new blood vessels (tube maintenance)” value [6] was “effectively inhibited”.
